# Legend:
# [1] = Selectivity index, ratio of ED50 for human COL1 cells to ED50 for chloroquine-sensitive Plasmodium falciparum D6; assay type: toxicity, cell-based; settings: read-out: Ratio ED50
# [2] = Selectivity index, ratio of ED50 for human ZR-75-1 cells to ED50 for chloroquine-resistant Plasmodium falciparum W2; assay type: toxicity, cell-based; settings: read-out: Ratio ED50
# [3] = Cytotoxicity against human HT1080 cells after 3 days by sulforhodamine B assay; assay type: cell-based, HT-1080; settings: read-out: ED50
# [4] = Selectivity index, ratio of ED50 for human ZR-75-1 cells to ED50 for chloroquine-sensitive Plasmodium falciparum D6; assay type: toxicity, cell-based; settings: read-out: Ratio ED50
# [5] = Cytotoxicity against human LUC1 cells after 3 days by sulforhodamine B assay; assay type: cell-based; settings: read-out: ED50
# [6] = Selectivity index, ratio of ED50 for human LNCaP cells to ED50 for chloroquine-resistant Plasmodium falciparum W2; assay type: toxicity, cell-based; settings: read-out: Ratio ED50
# [7] = Cytotoxicity against human A431 cells after 3 days by sulforhodamine B assay; assay type: cell-based, A-431; settings: read-out: ED50
# [8] = Selectivity index, ratio of ED50 for human KB-V1 cells to ED50 for chloroquine-resistant Plasmodium falciparum W2; assay type: toxicity, cell-based; settings: read-out: Ratio ED50
# in vitro [9] = settings: human, A431 cells
# Description: Selectivity index, ratio of ED50 for human A431 cells to ED50 for chloroquine-resistant Plasmodium falciparum W2
# in vitro [10] = settings: mouse, P388 cells
# Description: Selectivity index, ratio of ED50 for mice (Mus musculus) P388 cells to ED50 for chloroquine-sensitive Plasmodium falciparum D6
# [11] = Cytotoxicity against human LNCAP cells after 3 days by sulforhodamine B assay; assay type: cell-based; settings: read-out: ED50
# Plasmodium falciparum [12] = assay: Antimalarial activity after 24 hrs against chloroquine-resistant Plasmodium falciparum W2 infected type A+ human erythrocytes by [3H]hypoxanthine uptake; assay type: functional; settings: read-out: ED50 (the source's name)
# [13] = Selectivity index, ratio of ED50 for human HT1080 cells to ED50 for chloroquine-resistant Plasmodium falciparum W2; assay type: toxicity, cell-based, HT-1080; settings: read-out: Ratio ED50
# [14] = Cytotoxicity against human Col1 cells after 3 days by sulforhodamine B assay; assay type: cell-based; settings: read-out: ED50
# [15] = Selectivity index, ratio of ED50 for human MEL2 cells to ED50 for chloroquine-sensitive Plasmodium falciparum D6; assay type: toxicity, cell-based; settings: read-out: Ratio ED50
# [16] = Selectivity index, ratio of ED50 for human COL1 cells to ED50 for chloroquine-resistant Plasmodium falciparum W2; assay type: toxicity, cell-based; settings: read-out: Ratio ED50
# [17] = Selectivity index, ratio of ED50 for human KB-V1 cells to ED50 for chloroquine-sensitive Plasmodium falciparum D6; assay type: toxicity, cell-based; settings: read-out: Ratio ED50
# [18] = Selectivity index, ratio of ED50 for human BCA1 cells to ED50 for chloroquine-resistant Plasmodium falciparum W2; assay type: toxicity, cell-based; settings: read-out: Ratio ED50
# [19] = Selectivity index, ratio of ED50 for human LNCaP cells to ED50 for chloroquine-sensitive Plasmodium falciparum D6; assay type: toxicity, cell-based; settings: read-out: Ratio ED50
# Plasmodium falciparum [20] = assay: Antimalarial activity after 24 hrs against chloroquine-sensitive Plasmodium falciparum D6 infected type A+ human erythrocytes by [3H]hypoxanthine uptake; assay type: functional; settings: read-out: ED50 (the source's name)
# [21] = Selectivity index, ratio of ED50 for human KB cells to ED50 for chloroquine-resistant Plasmodium falciparum W2; assay type: toxicity, cell-based; settings: read-out: Ratio ED50
# [22] = Cytotoxicity against human KBV1 cells after 3 days by sulforhodamine B assay; assay type: cell-based, KB-V1; settings: read-out: ED50
# [23] = Selectivity index, ratio of ED50 for human KB cells to ED50 for chloroquine-sensitive Plasmodium falciparum D6; assay type: toxicity, cell-based; settings: read-out: Ratio ED50
# [24] = Cytotoxicity against human KB cells after 3 days by sulforhodamine B assay; assay type: cell-based; settings: read-out: ED50
# [25] = Cytotoxicity against human ZR-75-1 cells after 3 days by sulforhodamine B assay; assay type: cell-based; settings: read-out: ED50
# [26] = Selectivity index, ratio of ED50 for human HT1080 cells to ED50 for chloroquine-sensitive Plasmodium falciparum D6; assay type: toxicity, cell-based, HT-1080; settings: read-out: Ratio ED50
# [27] = Cytotoxicity against human SK-MEL-2 cells after 3 days by sulforhodamine B assay; assay type: cell-based; settings: read-out: ED50
# in vitro [28] = settings: mouse, P388 cells; remark: listed apart in the source
# Description: Selectivity index, ratio of ED50 for mice (Mus musculus) P388 cells to ED50 for chloroquine-resistant Plasmodium falciparum W2
# [29] = Selectivity index, ratio of ED50 for human LUC1 cells to ED50 for chloroquine-sensitive Plasmodium falciparum D6; assay type: toxicity, cell-based; settings: read-out: Ratio ED50
# [30] = Selectivity index, ratio of ED50 for human BCA1 cells to ED50 for chloroquine-sensitive Plasmodium falciparum D6; assay type: toxicity, cell-based; settings: read-out: Ratio ED50
# in vitro [31] = settings: human, A431 cells; remark: listed apart in the source
# Description: Selectivity index, ratio of ED50 for human A431 cells to ED50 for chloroquine-sensitive Plasmodium falciparum D6
# [32] = Cytotoxicity against mouse P388 cells after 2 days by sulforhodamine B assay; assay type: cell-based; settings: read-out: ED50
# [33] = Selectivity index, ratio of ED50 for human MEL2 cells to ED50 for chloroquine-resistant Plasmodium falciparum W2; assay type: toxicity, cell-based; settings: read-out: Ratio ED50
# [34] = Cytotoxicity against human BCA1 cells after 3 days by sulforhodamine B assay; assay type: cell-based; settings: read-out: ED50
# [35] = Selectivity index, ratio of ED50 for human LUC1 cells to ED50 for chloroquine-resistant Plasmodium falciparum W2; assay type: toxicity, cell-based; settings: read-out: Ratio ED50
Compound,selectivity ratio [1],selectivity ratio [2],CC50 at 72 h [3] [µg/mL],selectivity ratio [4],CC50 at 72 h [5] [µg/mL],selectivity ratio [6],CC50 at 72 h [7] [µg/mL],selectivity ratio [8],selectivity ratio (in vitro [9]),CC50 at 72 h [11] [µg/mL],EC50 (Plasmodium falciparum [12]) [µg/mL],CC50 at 72 h [14] [µg/mL],EC50 (Plasmodium falciparum [20]) [µg/mL],CC50 at 72 h [22] [µg/mL],CC50 at 72 h [24] [µg/mL],CC50 at 72 h [25] [µg/mL],CC50 at 72 h [27] [µg/mL],selectivity ratio (in vitro [28]),CC50 at 48 h [32] [µg/mL],CC50 at 72 h [34] [µg/mL],further results
COc1ccc2cc1Oc1ccc(cc1)C[C@H]1c3c(cc(OC)c(OC)c3Oc3cc4c(cc3OC)CCN(C)[C@@H]4C2)CCN1C [OBABERINE],47,19,10.4,17,9.7,23,8.7,12,40,5,0.216,10.8,0.231,2.6,8.6,4,20,19,4.1,4.6,selectivity ratio (in vitro [10]): 18; selectivity ratio [13]: 48; selectivity ratio [15]: 87; selectivity ratio [16]: 50; selectivity ratio [17]: 11; selectivity ratio [18]: 21; selectivity ratio [19]: 22; selectivity ratio [21]: 40; selectivity ratio [23]: 37; selectivity ratio [26]: 45; selectivity ratio [29]: 42; selectivity ratio [30]: 20; selectivity ratio (in vitro [31]): 38; selectivity ratio [33]: 93; selectivity ratio [35]: 45
CCN(CC)CCCC(C)Nc1ccnc2cc(Cl)ccc12 (stereo not given) [CHLOROQUINE],,,6.5,,> 20,,> 20,,,14.3,0.0317,10.1,0.0025,7.8,17.4,15.8,> 20,,> 5,> 20,
OC(c1cc(C(F)(F)F)nc2c(C(F)(F)F)cccc12)C1CCCCN1 (stereo not given) [MEFLOQUINE],111,2250,2.3,300,7.7,1920,3,917,2500,2.3,0.0012,1,0.009,1.1,3.5,1.2,8.9,166,0.2,5.3,selectivity ratio (in vitro [10]): 22; selectivity ratio [13]: 1920; selectivity ratio [15]: 989; selectivity ratio [16]: 833; selectivity ratio [17]: 122; selectivity ratio [18]: 4420; selectivity ratio [19]: 256; selectivity ratio [23]: 389; selectivity ratio [26]: 256; selectivity ratio [30]: 588; selectivity ratio (in vitro [31]): 333; selectivity ratio [33]: 7420
COc1ccc2cc1Oc1ccc(cc1)C[C@H]1c3c(cc4c(c3Oc3cc5c(cc3OC)CCN[C@@H]5C2)OCO4)CCN1C,67,7,1.9,19,2,23,1.8,11,14,3,0.129,3.1,0.0466,1.4,3.9,0.9,10.5,1,0.1,1.7,selectivity ratio (in vitro [10]): 2; selectivity ratio [13]: 15; selectivity ratio [15]: 225; selectivity ratio [16]: 24; selectivity ratio [17]: 30; selectivity ratio [18]: 13; selectivity ratio [19]: 64; selectivity ratio [21]: 30; selectivity ratio [23]: 84; selectivity ratio [26]: 41; selectivity ratio [29]: 43; selectivity ratio [30]: 36; selectivity ratio (in vitro [31]): 39; selectivity ratio [33]: 81; selectivity ratio [35]: 16
COc1ccc2cc1Oc1ccc(cc1)C[C@H]1c3c(cc(OC)c4c3Oc3cc5c(cc3O4)CCN=C5C2)CCN1C,16,3,2.1,2,1.7,8,6,27,23,2,0.256,5,0.307,6.8,2.8,0.7,9.9,12,3.1,4.6,selectivity ratio (in vitro [10]): 10; selectivity ratio [13]: 8; selectivity ratio [15]: 32; selectivity ratio [16]: 20; selectivity ratio [17]: 22; selectivity ratio [18]: 18; selectivity ratio [19]: 7; selectivity ratio [21]: 11; selectivity ratio [23]: 9; selectivity ratio [26]: 7; selectivity ratio [29]: 6; selectivity ratio [30]: 15; selectivity ratio (in vitro [31]): 20; selectivity ratio [33]: 39; selectivity ratio [35]: 7
COc1ccc2cc1Oc1ccc(cc1)C[C@H]1c3cc(c(OC)cc3CCN1C)Oc1c(O)c(OC)cc3c1[C@@H](C2)NCC3,69,13,2.2,23,8.4,53,4.2,65,34,6.6,0.125,4.7,0.0686,8.1,6.3,1.2,15.4,1,0.1,4.1,selectivity ratio (in vitro [10]): 2; selectivity ratio [13]: 18; selectivity ratio [15]: 225; selectivity ratio [16]: 38; selectivity ratio [17]: 118; selectivity ratio [18]: 33; selectivity ratio [19]: 97; selectivity ratio [21]: 50; selectivity ratio [23]: 92; selectivity ratio [26]: 32; selectivity ratio [29]: 123; selectivity ratio [30]: 60; selectivity ratio (in vitro [31]): 61; selectivity ratio [35]: 67
COc1ccc2cc1Oc1ccc(cc1)C[C@H]1c3cc(c(OC)cc3CCN1C)Oc1c(O)c(OC)cc3c1[C@@H](C2)N(C)CC3,92,11,10,21,9.7,26,4.9,16,21,5.9,0.23,11.1,0.121,3.7,6.5,2.5,14.9,32,7.4,5,selectivity ratio (in vitro [10]): 61; selectivity ratio [13]: 44; selectivity ratio [15]: 124; selectivity ratio [16]: 48; selectivity ratio [17]: 31; selectivity ratio [18]: 22; selectivity ratio [19]: 49; selectivity ratio [21]: 28; selectivity ratio [23]: 54; selectivity ratio [26]: 83; selectivity ratio [29]: 80; selectivity ratio [30]: 42; selectivity ratio (in vitro [31]): 41; selectivity ratio [33]: 65; selectivity ratio [35]: 42
COc1ccc2cc1Oc1ccc(cc1)C[C@H]1c3c(cc(O)c(OC)c3Oc3cc4c(cc3OC)CCN(C)[C@@H]4C2)CCN1C,,43,7.2,4,8.6,,8.9,,,8.3,0.31,7.5,0.13,7.4,6.4,2.1,12.8,76,3.7,4.7,

# — ChEMBL document CHEMBL1147331, “Cytotoxic and antimalarial bisbenzylisoquinoline alkaloids from Stephania erecta” (J Nat Prod, 1993)
